Our source for the inhibition and pest or weed control values is US20180370927A1, “MICROBIOCIDAL OXADIAZOLE DERIVATIVES” (SYNGENTA PARTICIPATIONS AG, priority 2015, published 2018).

Where two headings read alike, the source gives them in different places. A value given as a limit tells only on which side of the number the result lay.

In assay [1] the test system is Glomerella lacenarium (Colletotrichum lacenarium). Description: Glomerella lacenarium (Colletotrichum lacenarium) liquid culture / cucumber / preventative (anthracnose). Format: cell-based. The settings on record: read-out: disease control (inhibition of growth, photometric) compared to untreated control. How it is done: Mycelia fragments or conidia suspensions of a fungus prepared either freshly from liquid cultures of the fungus or from cryogenic storage, are directly mixed into nutrient broth. DMSO solutions of the test compound (max. 10 mg/ml) are diluted with 0.025% Tween20 by a factor of 50 and 10 μL of this solution is pipetted into a microtiter plate (96-well format). The nutrient broth containing the fungal spores/mycelia fragments is then added to give an end concentration of the tested compound. The test plates are incubated in the dark at 24° C. and 96% relative humidity. The inhibition of fungal growth is determined photometrically after 2 to 7 days, depending on the pathosystem, and percent antifungal activity relative to the untreated check is calculated.
Example 4: Fungicidal Activity Against Glomerella lacenarium (Colletotrichum lacenarium) Liquid Culture/Cucumber/Preventative (Anthracnose)
Conidia of the fungus from cryogenic storage are directly mixed into nutrient broth (PDB—potato dextrose broth). After placing a (DMSO) solution of test compound into a microtiter plate (96-well format), the nutrient broth containing the fungal spores is added. The test plates are incubated at 24° C. and the inhibition of growth is measured photometrically 3 to 4 days after application.
The following compounds at 20 ppm in the applied formulation give at least 80% disease control in this test when compared to untreated control under the same conditions, which show extensive disease development.

Assay [2] relates to Puccinia recondita f. Sp. Tritici. Briefly: Puccinia recondita f. sp. tritici / wheat / leaf disc preventative (brown rust). Format: in vivo. Conditions: foliar, read-out: disease control compared to untreated control leaf disks. How it is done: Leaf disks or leaf segments of various plant species are cut from plants grown in a greenhouse. The cut leaf disks or segments are placed in multiwell plates (24-well format) onto water agar. The leaf disks are sprayed with a test solution before (preventative) or after (curative) inoculation. Compounds to be tested are prepared as DMSO solutions (max. 10 mg/mL) which are diluted to the appropriate concentration with 0.025% Tween20 just before spraying. The inoculated leaf disks or segments are incubated under defined conditions (temperature, relative humidity, light, etc.) according to the respective test system. A single evaluation of disease level is carried out 3 to 14 days after inoculation, depending on the pathosystem. Percent disease control relative to the untreated check leaf disks or segments is then calculated.
Example 1: Fungicidal Activity Against Puccinia recondita f. Sp. Tritici/Wheat/Leaf Disc Preventative (Brown Rust)
Wheat leaf segments cv. Kanzler were placed on agar in multiwell plates (24-well format) and sprayed with the formulated test compound diluted in water. The leaf disks were inoculated with a spore suspension of the fungus 1 day after application. The inoculated leaf segments were incubated at 19° C. and 75% relative humidity (rh) under a light regime of 12 hours light/12 hours darkness in a climate cabinet and the activity of a compound was assessed as percent disease control compared to untreated when an appropriate level of disease damage appears in untreated check leaf segments (7 to 9 days after application).
The following compounds at 200 ppm in the applied formulation give at least 80% disease control in this test when compared to untreated control leaf disks under the same conditions, which show extensive disease development.

Setting [3] is: 20 ppm in the applied formulation, liquid culture in PDB, 24° C., 3 to 4 days after application.
[4] abbreviates: 200 ppm in the applied formulation, wheat leaf segments, preventative, assessed 7 to 9 days after application.

One may read the inhibition as how much of the control response was suppressed.

In the case of `CCCON(Cc1ccc(-c2noc(C(F)(F)F)n2)cc1)C(=O)C(=O)CCC` [Compound 1.7, 2-oxo-N-propoxy-N-[[4-[5-(trifluoromethyl)-1,2,4-oxadiazol-3-yl]phenyl]methyl]pentanamide], in assay [1] (setting [3]), the inhibition at 20 ppm is not below 80%. As to `CCCON(Cc1ccc(-c2noc(C(F)(F)F)n2)cc1)C(=O)C(C)=O` [Compound 1.8, 2-oxo-N-propoxy-N-[[4-[5-(trifluoromethyl)-1,2,4-oxadiazol-3-yl]phenyl]methyl]propanamide], in assay [1] (setting [3]), the inhibition at 20 ppm was not below 80%. Besides, the pest or weed control at 200 ppm in assay [2] (setting [4]) was not below 80%. With `CCCC(=O)C(=O)N(Cc1ccc(-c2noc(C(F)(F)F)n2)cc1)C(C)CC` (centres unmarked) [Compound 1.11, 2-oxo-N-sec-butyl-N-[[4-[5-(trifluoromethyl)-1,2,4-oxadiazol-3-yl]phenyl]methyl]pentanamide], the inhibition at 20 ppm in assay [1] (setting [3]) was not below 80%.

For `CCCC(=O)C(=O)N(Cc1ccc(-c2noc(C(F)(F)F)n2)cc1)CC1CCCO1` (centres unmarked) [Compound 1.13, 2-oxo-N-(tetrahydrofuran-2-ylmethyl)-N-[[4-[5-(trifluoromethyl)-1,2,4-oxadiazol-3-yl]phenyl]methyl]pentanamide], the inhibition at 20 ppm in assay [1] (setting [3]) is not below 80%. In addition, in assay [2] (setting [4]), the pest or weed control at 200 ppm is not below 80%. With `CC(=O)C(=O)N(Cc1ccc(-c2noc(C(F)(F)F)n2)cc1)OCC=C(Cl)Cl` [Compound 1.22, N-(3,3-dichloro-allyloxy)-2-oxo-N-[[4-[5-(trifluoromethyl)-1,2,4-oxadiazol-3-yl]phenyl]methyl]propanamide], the inhibition at 20 ppm in assay [1] (setting [3]) is not below 80%. Further, the pest or weed control at 200 ppm in assay [2] (setting [4]) was not below 80%. As for `CCCC(=O)C(=O)N(Cc1ccc(-c2noc(C(F)(F)F)n2)cc1)OCC=C(Cl)Cl` [Compound 1.23, N-(3,3-dichloro-allyloxy)-2-oxo-N-[[4-[5-(trifluoromethyl)-1,2,4-oxadiazol-3-yl]phenyl]methyl]pentanamide], the inhibition at 20 ppm in assay [1] (setting [3]) was not below 80%. On the same count and under the same terms, then `CCCC(=O)C(=O)N(Cc1ccc(-c2noc(C(F)(F)F)n2)cc1)OCc1ccc(Cl)cc1` [Compound 1.24, N-[(4-chlorophenyl)methoxy]-2-oxo-N-[[4-[5-(trifluoromethyl)-1,2,4-oxadiazol-3-yl]phenyl]methyl]pentanamide], with not below 80%. On to `CC(=O)C(=O)NCc1ccc(-c2noc(C(F)(F)F)n2)cn1` [Compound 1.28, 2-oxo-N-[[5-[5-(trifluoromethyl)-1,2,4-oxadiazol-3-yl]-2-pyridyl]methyl]propanamide], for which the inhibition at 20 ppm in assay [1] (setting [3]) is not below 80%. The same measure, in the same setting: to `CC(=O)C(=O)NCc1ccc(-c2noc(C(F)(F)F)n2)cc1Cl` [Compound 1.60, N-[[2-chloro-4-[5-(trifluoromethyl)-1,2,4-oxadiazol-3-yl]phenyl]methyl]-2-oxo-propanamide] belongs not below 80%. `CC(C)CC(=O)C(=O)NCc1c(F)cc(-c2noc(C(F)(F)F)n2)cc1F` [Compound 1.69, N-[[2,6-difluoro-4-[5-(trifluoromethyl)-1,2,4-oxadiazol-3-yl]phenyl]methyl]-4-methyl-2-oxo-pentanamide]: the inhibition at 20 ppm in assay [1] (setting [3]) is not below 80%. Besides, the pest or weed control at 200 ppm in assay [2] (setting [4]) was not below 80%.

Take `CON=C(C(=O)N(Cc1ccc(-c2noc(C(F)(F)F)n2)cc1)OC)c1ccccc1` [Compound 2.4, N-methoxy-2-methoxyimino-2-phenyl-N-[[4-[5-(trifluoromethyl)-1,2,4-oxadiazol-3-yl]phenyl]methyl]acetamide]: the inhibition at 20 ppm in assay [1] (setting [3]) was not below 80%. The pest or weed control at 200 ppm in assay [2] (setting [4]) was not below 80%. On to `CO/N=C(\C#N)C(=O)N(Cc1ccc(-c2noc(C(F)(F)F)n2)cc1)C1CC1` [Compound 2.15, (1E)-2-[cyclopropyl-[[4-[5-(trifluoromethyl)-1,2,4-oxadiazol-3-yl]phenyl]methyl]amino]-N-methoxy-2-oxo-acetimidoyl cyanide], for which the inhibition at 20 ppm in assay [1] was not below 80%. The pest or weed control at 200 ppm in assay [2] is not below 80%. In the case of `COCCN(Cc1ccccc1)C(=O)C(=O)Nc1ccc(-c2noc(C(F)(F)F)n2)cc1` [Compound 4.15], the inhibition at 20 ppm in assay [1] (setting [3]) is not below 80%. The pest or weed control at 200 ppm in assay [2] (setting [4]) is not below 80%.

On to `O=C(Nc1ccc(-c2noc(C(F)(F)F)n2)cc1)C(=O)N(Cc1ccc2c(c1)OCO2)CC1OCCO1` [Compound 4.16, N′-(1,3-benzodioxol-5-ylmethyl)-N′-(1,3-dioxolan-2-ylmethyl)-N-[4-[5-(trifluoromethyl)-1,2,4-oxadiazol-3-yl]phenyl]oxamide], for which the inhibition at 20 ppm in assay [1] (setting [3]) was not below 80%. As to `N#CCCN(CCC#N)C(=O)C(=O)Nc1ccc(-c2noc(C(F)(F)F)n2)cc1` [Compound 4.18, N′,N′-bis(2-cyanoethyl)-N-[4-[5-(trifluoromethyl)-1,2,4-oxadiazol-3-yl]phenyl]oxamide], in assay [2] (setting [4]), the pest or weed control at 200 ppm was not below 80%. On to `CN(C(=O)C(=O)Nc1ccc(-c2noc(C(F)(F)F)n2)cc1)C1CCN(C(=O)OC(C)(C)C)C1` (centres unmarked) [Compound 4.22, tert-butyl 3-[methyl-[2-oxo-2-[4-[5-(trifluoromethyl)-1,2,4-oxadiazol-3-yl]anilino]acetyl]amino] pyrrolidine-1-carboxylate], for which, in assay [2] (setting [4]), the pest or weed control at 200 ppm was not below 80%. Consider `NC(=O)C(=O)N(Cc1ccc(-c2noc(C(F)(F)F)n2)cc1)Cc1ccco1` [Compound 4.24, N′-(2-furylmethyl)-N′-[[4-[5-(trifluoromethyl)-1,2,4-oxadiazol-3-yl]phenyl]methyl] oxamide], for which the inhibition at 20 ppm in assay [1] (setting [3]) is not below 80%. Further, the pest or weed control at 200 ppm in assay [2] (setting [4]) is not below 80%.

Regarding `CN(C)C(=O)C(=O)N(Cc1ccc(-c2noc(C(F)(F)F)n2)cc1)OCC=C(Cl)Cl` [Compound 4.31, N′-(3,3-dichloroallyloxy)-N,N-dimethyl-N′-[[4-[5-(trifluoromethyl)-1,2,4-oxadiazol-3-yl]phenyl]methyl] oxamide], the inhibition at 20 ppm in assay [1] (setting [3]) is not below 80%. Besides, the pest or weed control at 200 ppm in assay [2] (setting [4]) is not below 80%. For `NC(=O)C(=O)N(Cc1ccc(-c2noc(C(F)(F)F)n2)cc1)OCC=C(Cl)Cl` [Compound 4.32, N′-(3,3-dichloroallyloxy)-N′-[[4-[5-(trifluoromethyl)-1,2,4-oxadiazol-3-yl]phenyl]methyl] oxamide], the inhibition at 20 ppm in assay [1] (setting [3]) was not below 80%. Moreover, the pest or weed control at 200 ppm in assay [2] (setting [4]) is not below 80%. For the compound `CN(C)C(=O)C(=O)N(Cc1ccc(-c2noc(C(F)(F)F)n2)cc1)OCc1ccc(Cl)cc1` [Compound 4.33, N′-[(4-chlorophenyl)methoxy]-N,N-dimethyl-N′-[[4-[5-(trifluoromethyl)-1,2,4-oxadiazol-3-yl]phenyl]methyl] oxamide], the inhibition at 20 ppm in assay [1] (setting [3]) was not below 80%.

For `CC(C)(C)CNC(=O)C(=O)NCc1ccc(-c2noc(C(F)(F)F)n2)cc1` [Compound 4.45, N′-(2,2-dimethylpropyl)-N-[[4-[5-(trifluoromethyl)-1,2,4-oxadiazol-3-yl]phenyl]methyl] oxamide], the inhibition at 20 ppm in assay [1] (setting [3]) is not below 80%. In the case of `CC(C)CNC(=O)C(=O)NCc1ccc(-c2noc(C(F)(F)F)n2)cc1` [Compound 4.50, N′-isobutyl-N-[[4-[5-(trifluoromethyl)-1,2,4-oxadiazol-3-yl]phenyl]methyl] oxamide], the pest or weed control at 200 ppm in assay [2] (setting [4]) is not below 80%. Take `O=C(NCc1ccccc1)C(=O)NCc1ccc(-c2noc(C(F)(F)F)n2)cc1` [Compound 4.53, N-benzyl-N′-[[4-[5-(trifluoromethyl)-1,2,4-oxadiazol-3-yl]phenyl]methyl] oxamide]: the pest or weed control at 200 ppm in assay [2] (setting [4]) is not below 80%. Turning to `NC(=O)C(=O)NCc1ccc(-c2noc(C(F)(F)F)n2)cc1F` [Compound 4.82, N′-[[2-fluoro-4-[5-(trifluoromethyl)-1,2,4-oxadiazol-3-yl]phenyl]methyl] oxarnide], the inhibition at 20 ppm in assay [1] (setting [3]) was not below 80%. On the same count and under the same terms, to `NC(=O)C(=O)NCc1ccc(-c2noc(C(F)(F)F)n2)c(F)c1` [Compound 4.83, N′-[[3-fluoro-4-[5-(trifluoromethyl)-1,2,4-oxadiazol-3-yl]phenyl]methyl] oxamide] belongs not below 80%.
